Tests used:
Enterobacteriaceae [1] = assay: Inhibition of NDM/VIM in carbapenem-resistant Enterobacteriaceae assessed as potentiation of cefepime-induced antibacterial activity by measuring cefepime MIC50 at 8 ug/ml by broth microdilution method (Rvb > 32 ug/ml)
Pseudomonas aeruginosa [2] = assay: Potentiation of cefepime-induced antibacterial activity against Pseudomonas aeruginosa assessed as cefepime MIC90 at 8 ug/ml by broth microdilution method (Rvb 32 ug/ml); format: functional
Acinetobacter baumannii [3] = assay: Potentiation of ceftolozane-induced antibacterial activity against carbapenem-resistant Acinetobacter baumannii assessed as ceftolozane MIC50 at 8 ug/ml by broth microdilution method (Rvb > 32 ug/ml); format: functional
Enterobacterales = assay: Potentiation of ceftolozane-induced antibacterial activity against Enterobacterales assessed as ceftolozane MIC50 at 8 ug/ml by broth microdilution method (reference value: 32 ug/ml); format: functional
[4] = biological target: Matrix metalloproteinase-9 (Homo sapiens, UniProt P14780); assay: Inhibition of mammalian MMP-9 (unknown origin) using McaPLGLDpaAR-NH2 as substrate preincubated for 10 mins followed by substrate addition measured after 30 mins
[5] = Oral bioavailability in rat at 100 mg/kg administered via gavage by HPLC/MS analysis; format: ADME, organism-based; conditions: in vivo
Acinetobacter baumannii [6] = assay: Potentiation of cefepime-induced antibacterial activity against carbapenem-resistant Acinetobacter baumannii assessed as cefepime MIC90 at 8 ug/ml by broth microdilution method (Rvb > 32 ug/ml); format: functional
[7] = biological target: Beta-lactamase OXA-23 (Acinetobacter baumannii) (UniProt Q9L4P2); assay: Inhibition of Acinetobacter baumannii AB1054 OXA-23 assessed as minimum concentration of compound needed to reduce the MIC of meropenem to 8 ug/ml
Klebsiella pneumoniae [8] = assay: Potentiation of meropenem-induced antibacterial activity against carbapenem-resistant Klebsiella pneumoniae assessed as meropenem MIC90 at 8 ug/ml by broth microdilution method (Rvb > 32 ug/ml); format: functional
[9] = Clearance in rat at 300 mg/kg, po administered via gavage by HPLC/MS analysis; format: ADME, organism-based; conditions: in vivo
Prothrombin = Prothrombin (Homo sapiens, UniProt P00734); assay: Inhibition of mammalian thrombin (unknown origin) using Benz-FVR-AMC as substrate preincubated for 10 mins followed by substrate addition measured after 30 mins
[10] = biological target: Urokinase-type plasminogen activator (Homo sapiens, UniProt P00749); assay: Inhibition of mammalian urokinase (unknown origin) using NGK-pNA as substrate preincubated for 10 mins followed by substrate addition measured after 30 mins
Enterobacteriaceae [11] = assay: Inhibition of OXA-48 in carbapenem-resistant Enterobacteriaceae assessed as potentiation of ceftolozane-induced antibacterial activity by measuring ceftolozane MIC90 at 8 ug/ml by broth microdilution method (Rvb > 32 ug/ml)
[12] = Half life in rat at 300 mg/kg, iv administered as infusion for 0.5 hrs by HPLC/MS analysis; format: ADME, organism-based; conditions: in vivo
[13] = Toxicity in rat assessed as clinical changes at 30 to 300 mg/kg, iv administered daily via infusion for 7 days; format: organism-based; conditions: in vivo, 168 h
Cathepsin G = Cathepsin G (Homo sapiens, UniProt P08311); assay: Inhibition of mammalian cathepsin G (unknown origin) using Suc-AAPF-AMC as substrate preincubated for 10 mins followed by substrate addition measured after 30 mins
Enterobacteriaceae [14] = assay: Inhibition of OXA-48 in carbapenem-resistant Enterobacteriaceae assessed as potentiation of meropenem-induced antibacterial activity by measuring meropenem MIC50 at 8 ug/ml by broth microdilution method (reference value: 32 ug/ml)
[15] = Cmax in rat at 10 mg/kg, iv administered as infusion for 0.5 hrs by HPLC/MS analysis; format: ADME, organism-based; design: dose 10 mg/kg, route intravenous; conditions: in vivo
Klebsiella pneumoniae [16] = assay: Potentiation of cefepime-induced antibacterial activity against carbapenem-resistant Klebsiella pneumoniae assessed as cefepime MIC90 at 8 ug/ml by broth microdilution method (Rvb > 32 ug/ml); format: functional
[17] = Lipophilicity, log D of the compound at pH 7.4; format: physicochemical; conditions: buffer
[18] = AUC in rat at 30 mg/kg, po administered via gavage by HPLC/MS analysis; format: ADME, organism-based; conditions: in vivo
Acinetobacter baumannii [19] = assay: Potentiation of meropenem-induced antibacterial activity against carbapenem-resistant Acinetobacter baumannii assessed as meropenem MIC50 at 8 ug/ml by broth microdilution method (Rvb > 32 ug/ml); format: functional
Escherichia coli = assay: Inhibition of Escherichia coli KP308 SHV-5 assessed as minimum concentration of compound required to reduce the MIC of aztreonam to 4 ug/ml
[20] = AUC in rat at 100 mg/kg, iv administered as infusion for 0.5 hrs by HPLC/MS analysis; format: ADME, organism-based; conditions: in vivo
Pseudomonas aeruginosa [21] = assay: Potentiation of ceftolozane-induced antibacterial activity against Pseudomonas aeruginosa assessed as ceftolozane MIC90 at 8 ug/ml by broth microdilution method (reference value: 4 ug/ml); format: functional
Enterobacteriaceae [22] = assay: Inhibition of NDM/VIM in carbapenem-resistant Enterobacteriaceae assessed as potentiation of meropenem-induced antibacterial activity by measuring meropenem MIC50 at 8 ug/ml by broth microdilution method (reference value: 32 ug/ml)
Chymase = Chymase (Homo sapiens, UniProt P23946); assay: Inhibition of mammalian chymase (unknown origin) using Suc-AAPF-AMC as substrate preincubated for 10 mins followed by substrate addition measured after 30 mins
Klebsiella pneumoniae [23] = assay: Potentiation of meropenem-induced bacteriostatic activity against carbapenem-resistant Klebsiella pneumoniae KP1244 harboring KPC-3, SHV-11, and SHV-12 infected in Swiss-Webster mouse model of neutropenic thigh infection assessed as log change in bacterial count in thigh at 5 mg/kg, ip administered at 2 hrs interval for 24 hrs starting from 2 hr post infection and measured post last dose (reference value: 0.62 log10CFU); format: functional
Neutrophil elastase = Neutrophil elastase (Homo sapiens, UniProt P08246); assay: Inhibition of mammalian neutrophil elastase (unknown origin) using MeOSuc-AAVP-AMC as substrate preincubated for 10 mins followed by substrate addition measured after 30 mins
Klebsiella pneumoniae [24] = assay: Potentiation of meropenem-induced antibacterial activity in Klebsiella pneumoniae KP1244 by measuring meropenem MIC at 8 ug/ml by broth microdilution method (Rvb >64 ug/ml); format: functional
[25] = Oral bioavailability in rat at 300 mg/kg administered via gavage by HPLC/MS analysis; format: ADME, organism-based; conditions: in vivo
Klebsiella pneumoniae [26] = assay: Inhibition of Klebsiella pneumoniae KP1009 CTX-M-15 assessed as minimum concentration of compound required to reduce the MIC of aztreonam to 4 ug/ml
Enterobacteriaceae [27] = assay: Inhibition of OXA-48 in carbapenem-resistant Enterobacteriaceae assessed as potentiation of cefepime-induced antibacterial activity by measuring cefepime MIC90 at 8 ug/ml by broth microdilution method (Rvb > 32 ug/ml)
Pseudomonas aeruginosa [28] = assay: Potentiation of ceftolozane-induced antibacterial activity against Pseudomonas aeruginosa assessed as ceftolozane MIC50 at 8 ug/ml by broth microdilution method (reference value: 0.5 ug/ml); format: functional
[29] = AUC in rat at 300 mg/kg, po administered via gavage by HPLC/MS analysis; format: ADME, organism-based; conditions: in vivo
Enterobacteriaceae [30] = assay: Inhibition of NDM/VIM in carbapenem-resistant Enterobacteriaceae assessed as potentiation of cefepime-induced antibacterial activity by measuring cefepime MIC90 at 8 ug/ml by broth microdilution method (Rvb > 32 ug/ml)

Beta-lactamase OXA-23 (Acinetobacter baumannii), sequence (Q9L4P2 whole entry): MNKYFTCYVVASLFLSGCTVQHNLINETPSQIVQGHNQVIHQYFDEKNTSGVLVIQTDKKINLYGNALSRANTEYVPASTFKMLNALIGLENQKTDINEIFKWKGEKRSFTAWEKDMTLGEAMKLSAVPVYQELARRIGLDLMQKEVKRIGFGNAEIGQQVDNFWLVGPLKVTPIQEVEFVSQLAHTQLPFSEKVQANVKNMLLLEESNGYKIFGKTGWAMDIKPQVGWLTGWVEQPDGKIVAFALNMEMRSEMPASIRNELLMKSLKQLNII
Chymase, sequence (P23946 whole entry): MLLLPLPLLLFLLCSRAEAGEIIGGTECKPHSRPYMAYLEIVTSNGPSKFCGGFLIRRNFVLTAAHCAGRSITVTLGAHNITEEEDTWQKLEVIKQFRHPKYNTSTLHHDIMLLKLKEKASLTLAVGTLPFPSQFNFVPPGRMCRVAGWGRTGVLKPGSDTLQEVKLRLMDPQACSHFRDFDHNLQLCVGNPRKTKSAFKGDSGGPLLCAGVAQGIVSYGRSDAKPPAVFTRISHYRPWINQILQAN
Matrix metalloproteinase-9, sequence (P14780 whole entry): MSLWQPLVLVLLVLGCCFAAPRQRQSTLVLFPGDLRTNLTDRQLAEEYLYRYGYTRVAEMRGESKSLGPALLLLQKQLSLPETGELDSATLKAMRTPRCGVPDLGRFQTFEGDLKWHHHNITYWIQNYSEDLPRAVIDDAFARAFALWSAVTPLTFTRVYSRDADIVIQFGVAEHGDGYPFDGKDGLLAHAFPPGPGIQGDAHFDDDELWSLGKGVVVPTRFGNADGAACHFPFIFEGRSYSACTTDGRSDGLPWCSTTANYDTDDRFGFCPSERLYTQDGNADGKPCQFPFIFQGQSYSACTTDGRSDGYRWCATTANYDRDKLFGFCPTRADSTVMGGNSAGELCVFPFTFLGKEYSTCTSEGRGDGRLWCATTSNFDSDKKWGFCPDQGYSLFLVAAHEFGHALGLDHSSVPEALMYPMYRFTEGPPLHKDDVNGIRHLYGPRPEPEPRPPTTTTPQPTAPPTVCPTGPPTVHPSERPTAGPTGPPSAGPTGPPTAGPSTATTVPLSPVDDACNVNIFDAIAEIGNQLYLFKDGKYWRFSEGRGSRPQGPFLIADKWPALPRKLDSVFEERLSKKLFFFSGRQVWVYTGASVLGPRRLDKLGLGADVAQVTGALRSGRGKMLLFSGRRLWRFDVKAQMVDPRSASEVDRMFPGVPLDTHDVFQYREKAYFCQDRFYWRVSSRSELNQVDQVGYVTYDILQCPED
Cathepsin G, sequence (P08311 whole entry): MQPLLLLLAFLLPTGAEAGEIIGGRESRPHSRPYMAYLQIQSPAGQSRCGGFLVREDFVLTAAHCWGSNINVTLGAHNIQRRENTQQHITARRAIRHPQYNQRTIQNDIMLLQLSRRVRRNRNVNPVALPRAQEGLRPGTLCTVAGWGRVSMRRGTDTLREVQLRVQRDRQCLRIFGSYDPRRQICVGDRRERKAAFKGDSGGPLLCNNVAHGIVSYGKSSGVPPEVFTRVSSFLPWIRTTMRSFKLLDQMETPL
Neutrophil elastase, sequence (P08246 whole entry): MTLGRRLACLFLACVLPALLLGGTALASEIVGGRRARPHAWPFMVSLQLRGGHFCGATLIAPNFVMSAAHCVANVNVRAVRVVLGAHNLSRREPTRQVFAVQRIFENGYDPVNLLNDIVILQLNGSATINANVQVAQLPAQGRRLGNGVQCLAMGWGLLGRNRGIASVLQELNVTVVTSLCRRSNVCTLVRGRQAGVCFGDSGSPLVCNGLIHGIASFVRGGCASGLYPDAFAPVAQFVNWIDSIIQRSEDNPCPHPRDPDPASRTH

In the case of `O=C(O)c1c(F)ccc2c1OB(O)[C@@H]1C[C@H]21` [XERUBORBACTAM], the MIC50 (Enterobacteriaceae [1]) is reported as < 0.06 µg/mL, the MIC90 (Pseudomonas aeruginosa [2]) is reported as 8 µg/mL and the MIC50 (Acinetobacter baumannii [3]) is reported as 8 µg/mL. For the same compound, the MIC50 (Enterobacterales) was 0.125 µg/mL, the IC50 [4] was > 1000 µM and the bioavailability [5] was 42.6%. For the same compound, the MIC90 (Acinetobacter baumannii [6]) was 32 µg/mL, the MEC [7] was 1.25 µg/mL and the MIC90 (Klebsiella pneumoniae [8]) was 0.125 µg/mL. For the same compound, the CL/F [9] was 28.5 mL/min/kg, the IC50 (Prothrombin) was > 100 µM and the IC50 [10] was > 1000 µM. The MIC90 (Enterobacteriaceae [11]) was 0.5 µg/mL, the half-life [12] was 1.18 h and the Activity [13] was “Toxic”. For the same compound, the IC50 (Cathepsin G) was 666 µM, the MIC50 (Enterobacteriaceae [14]) was < 0.06 µg/mL and the Cmax [15] was 26100 ng/mL. For the same compound, the MIC90 (Klebsiella pneumoniae [16]) was 0.25 µg/mL, the logD [17] was -2.85 and the AUC [18] was 34 µg·h/mL. For the same compound, the MIC50 (Acinetobacter baumannii [19]) was 0.5 µg/mL, the MEC (Escherichia coli) was 0.3 µg/mL and the AUC at 0.5 h [20] was 221 µg·h/mL. The MIC90 (Pseudomonas aeruginosa [21]) was 1 µg/mL, the MIC50 (Enterobacteriaceae [22]) was < 0.015 µg/mL and the IC50 (Chymase) was > 1000 µM. For the same compound, the Activity (Klebsiella pneumoniae [23]) was -0.88 log10CFU, the IC50 (Neutrophil elastase) was 132 µM and the MIC (Klebsiella pneumoniae [24]) was 0.25 µg/mL. It also gave a bioavailability [25] of 28%, an MEC (Klebsiella pneumoniae [26]) of 0.3 µg/mL and an MIC90 (Enterobacteriaceae [27]) of 0.5 µg/mL. It also gave an MIC50 (Pseudomonas aeruginosa [28]) of 0.5 µg/mL, an AUC [29] of 177 µg·h/mL and an MIC90 (Enterobacteriaceae [30]) of 1 µg/mL.
